Source: publication PMC3078958 (Archives of biochemistry and biophysics, 2011)

Biological target: T1, CsOxOx (Ceriporiopsis subvermispora bicupin oxalate oxidase, isoform-G) (Gelatoporia subvermispora, UniProt Q5ZH56)
T1 sequence (Q5ZH56 21-461): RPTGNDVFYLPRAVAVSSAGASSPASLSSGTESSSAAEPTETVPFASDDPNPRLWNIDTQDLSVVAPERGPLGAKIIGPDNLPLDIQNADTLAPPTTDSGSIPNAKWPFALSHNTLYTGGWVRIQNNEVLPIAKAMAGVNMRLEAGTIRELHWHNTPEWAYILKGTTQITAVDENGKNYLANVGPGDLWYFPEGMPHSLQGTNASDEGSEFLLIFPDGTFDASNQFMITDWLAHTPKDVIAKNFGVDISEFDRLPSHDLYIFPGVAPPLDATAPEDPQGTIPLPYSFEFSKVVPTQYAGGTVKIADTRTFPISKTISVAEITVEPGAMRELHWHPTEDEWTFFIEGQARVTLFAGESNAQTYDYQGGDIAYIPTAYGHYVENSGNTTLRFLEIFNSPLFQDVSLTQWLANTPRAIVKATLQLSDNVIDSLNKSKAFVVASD
Assay: continuous coupled HRP/ABTS assay of H2O2 production, […] nm
Assay type: biochemical

Ki | Structure (SMILES)
3 ± 0.3 mM | O=C(O)CC(=O)O [malonate]
28 ± 5 mM | O=C(O)CO [glycolate]

The remaining lines, values behind:

Structure (SMILES) | Ki
O=C(O)C[C@H](O)C(=O)O [malate] | 52 ± 6 mM
CC(=O)O [acetate] | 3.9 ± 0.6 mM
O=CC(=O)O [glyoxylate] | 15 ± 3 mM
CC(=O)C(=O)O [pyruvate] | 17 ± 3 mM
